Reference: ChEMBL document CHEMBL4145688, “Potent and Orally Bioavailable Inverse Agonists of RORγt Resulting from Structure-Based Design” (J Med Chem, 2018)
Values after ≈ are worked out from the molar mass of the structure shown.

Key:
[1] = target: T1, Nuclear receptor ROR-gamma (Homo sapiens, UniProt P51449); test: Inverse agonist activity at RORgammat in human TH17 cells assessed as inhibition of IL17 release incubated for 4 days by HTRF assay; type: cell-based
T1 sequence (P51449 whole entry): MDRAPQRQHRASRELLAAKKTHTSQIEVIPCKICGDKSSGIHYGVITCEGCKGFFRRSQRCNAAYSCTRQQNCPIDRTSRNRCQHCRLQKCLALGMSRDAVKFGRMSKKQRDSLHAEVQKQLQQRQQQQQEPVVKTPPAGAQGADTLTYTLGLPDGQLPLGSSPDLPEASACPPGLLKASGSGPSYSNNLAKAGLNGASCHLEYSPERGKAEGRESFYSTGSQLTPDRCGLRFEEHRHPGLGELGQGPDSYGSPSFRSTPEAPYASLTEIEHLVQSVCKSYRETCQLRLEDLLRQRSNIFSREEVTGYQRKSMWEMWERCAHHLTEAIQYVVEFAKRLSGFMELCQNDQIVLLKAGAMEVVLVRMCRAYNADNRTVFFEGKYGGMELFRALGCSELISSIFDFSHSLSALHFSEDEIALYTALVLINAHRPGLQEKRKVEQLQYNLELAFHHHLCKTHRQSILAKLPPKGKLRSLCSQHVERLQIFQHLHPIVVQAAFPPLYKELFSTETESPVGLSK

[2] = Distribution coefficient between 1-octanol and aqueous phosphate buffer, logD of the compound in pH 7.4 buffer; type: physicochemical; details: 1-octanol/aqueous phosphate buffer
[3] = target: T1, Nuclear receptor ROR-gamma
Description: Displacement of [3H]-2-(4-(ethylsulfonyl)phenyl)-N-(4-(2-(methoxymethyl)phenyl)thiophen-2-yl)acetamide from purified N-(HN)6-GST-TCS-human RORgammat (258 to 518 residues) incubated for 16 hrs by scintillation proximity assay

[4] = target: T1, Nuclear receptor ROR-gamma; remark: listed apart in the source
[5] = Cytotoxicity in human Th17 cells assessed as effect on cell viability by cell-titer-Glo luminescent cell viability assay relative to control; type: cell-based; details: read-out: Efficacy
[6] = Permeability from apical to basolateral side in human Caco2 cells; type: ADME, cell-based; details: for Papp A→B: Caco-2, read-out: permeability
[7] = Permeability from basolateral to apical side in human Caco2 cells; type: ADME, cell-based; details: for Papp B→A: Caco-2, read-out: permeability
[8] = Efflux ratio of permeability in human Caco2 cells; type: ADME, cell-based; details: Caco-2
[9] = Permeability in human Caco2 cells assessed as drug recovery; type: ADME, cell-based; details: Caco-2, read-out: Drug recovery
[10] = Unbound fraction in human plasma by equilibrium dialysis; type: ADME, cell-free
physchem = details: aqueous buffer, pH 7.4
Description: Solubility in aqueous buffer at pH 7.4

[11] = Intrinsic clearance in rat hepatocytes assessed per million cells; type: ADME, cell-based, Hepatocyte; details: read-out: CLH
[12] = Selectivity index, ratio of cytotoxicity in human Th17 cells to IC50 for inverse agonist activity at RORgammat in human TH17 cells assessed as inhibition of IL17 release; type: toxicity, cell-based
hERG (KCNH2) = hERG (KCNH2) (Homo sapiens, UniProt Q12809); test: Inhibition of human ERG at 11 uM
[13] = Intrinsic clearance in human hepatocytes assessed per million cells; type: ADME, cell-based, Hepatocyte; details: read-out: CLH
[14] = Clearance in Han Wistar rat at 0.5 mg/kg, iv or 1 mg/kg, po; type: ADME, organism-based; details: in vivo
[15] = Half life in Han Wistar rat at 0.5 mg/kg, iv or 1 mg/kg, po; type: ADME, organism-based; details: in vivo
[16] = Volume of distribution at steady state in Han Wistar rat at 0.5 mg/kg, iv or 1 mg/kg, po; type: ADME, organism-based; details: in vivo, read-out: Vdss
[17] = Oral bioavailability in Han Wistar rat at 1 mg/kg; type: ADME, organism-based; details: in vivo
[18] = Oral absorption in Han Wistar rat at 1 mg/kg; type: ADME, organism-based; details: in vivo, read-out: Fabs

Sequence of hERG (KCNH2) (Q12809 whole entry): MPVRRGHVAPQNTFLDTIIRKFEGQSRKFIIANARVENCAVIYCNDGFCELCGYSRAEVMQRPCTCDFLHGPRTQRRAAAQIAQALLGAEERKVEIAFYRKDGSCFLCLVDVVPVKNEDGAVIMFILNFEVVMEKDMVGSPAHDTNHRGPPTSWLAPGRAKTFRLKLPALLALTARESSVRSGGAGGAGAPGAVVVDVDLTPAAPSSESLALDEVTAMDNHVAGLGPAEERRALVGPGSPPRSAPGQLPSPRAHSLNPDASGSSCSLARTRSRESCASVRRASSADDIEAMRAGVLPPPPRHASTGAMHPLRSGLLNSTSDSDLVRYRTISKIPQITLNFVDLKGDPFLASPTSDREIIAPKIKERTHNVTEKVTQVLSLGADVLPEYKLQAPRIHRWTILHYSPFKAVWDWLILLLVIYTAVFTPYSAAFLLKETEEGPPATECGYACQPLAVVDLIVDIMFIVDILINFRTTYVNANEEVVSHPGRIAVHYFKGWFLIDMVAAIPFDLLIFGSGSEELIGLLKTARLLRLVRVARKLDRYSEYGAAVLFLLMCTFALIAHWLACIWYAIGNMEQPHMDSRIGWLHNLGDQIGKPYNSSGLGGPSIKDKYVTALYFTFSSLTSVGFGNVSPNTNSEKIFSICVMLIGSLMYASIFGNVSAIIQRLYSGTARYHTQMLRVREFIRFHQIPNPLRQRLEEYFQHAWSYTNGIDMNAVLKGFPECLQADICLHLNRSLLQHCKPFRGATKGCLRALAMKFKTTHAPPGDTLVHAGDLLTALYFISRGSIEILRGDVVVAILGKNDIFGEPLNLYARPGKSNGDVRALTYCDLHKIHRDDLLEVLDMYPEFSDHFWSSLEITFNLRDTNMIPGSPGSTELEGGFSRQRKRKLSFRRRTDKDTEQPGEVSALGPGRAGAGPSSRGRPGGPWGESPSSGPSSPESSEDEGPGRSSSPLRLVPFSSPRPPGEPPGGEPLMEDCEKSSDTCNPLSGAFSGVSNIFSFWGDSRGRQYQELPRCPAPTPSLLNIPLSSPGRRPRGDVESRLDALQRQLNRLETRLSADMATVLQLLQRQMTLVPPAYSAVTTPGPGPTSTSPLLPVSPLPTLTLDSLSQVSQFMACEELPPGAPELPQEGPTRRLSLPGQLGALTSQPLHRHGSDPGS

| SMILES | IC50 [1] [nM] | logD [2] | IC50 [3] [nM] | IC50 [4] [nM] | Emax [5] [%] | hepatocyte CLint [11] [µL/min/1e6 cells] | also measured |
| --- | --- | --- | --- | --- | --- | --- | --- |
| CCS(=O)(=O)c1ccc(CC(=O)Nc2nc(-c3cccc(Cl)c3)c(C(=O)c3ccccc3Cl)s2)cc1 | 180 | > 4.2 | 9 | 22 |  |  |  |
| CCS(=O)(=O)c1ccc(CC(=O)Nc2cc(-c3cccc(Cl)c3)c(C(=O)c3ccccc3Cl)s2)cc1 | 6 | 4.5 | 2 | 23 | 40 |  | Papp A→B [6]: < 0.001 ×10⁻⁶ cm/s; Papp B→A [7]: 0.6 ×10⁻⁶ cm/s; efflux ratio [8]: > 324; recovery [9]: 52%; fraction unbound [10]: < 0.002; solubility (physchem): < 0.1 µM |
| CCS(=O)(=O)c1ccc(CC(=O)Nc2cc(-c3cccnc3OCc3cccc(C#N)c3)cs2)cc1 |  | ≥ 4 | 19 |  | 50 | 281 |  |
| CCS(=O)(=O)c1ccc(CC(=O)Nc2cc(-c3cc(C#N)cc(F)c3OC)cs2)cc1 | 700 | 3.9 | 20 | 30 | 60 | 11.3 | Papp A→B [6]: 1.8 ×10⁻⁶ cm/s; Papp B→A [7]: 7.1 ×10⁻⁶ cm/s; efflux ratio [8]: 3.9; recovery [9]: 41%; selectivity ratio [12]: < 10; fraction unbound [10]: 0.0017 to 0.002; inhibition at 11 µM (hERG (KCNH2)): 43%; hepatocyte CLint [13]: 5.6 µL/min/1e6 cells; clearance [14]: 5.5 mL/min/kg; half-life [15]: 1.2 h; Vd [16]: 0.48 L/kg; bioavailability [17]: 85%; Fa [18]: 92%; solubility (physchem): 0.4 to 0.6 µM (≈ 0.183 to 0.275 µg/mL) |
| CCS(=O)(=O)c1ccc(CC(=O)Nc2cc(-c3cccnc3OC/C=C/c3ccccc3)cs2)cc1 | 25 | ≥ 4 | 11 | 29 | 40 | 45 | selectivity ratio [12]: 100 |
| CCS(=O)(=O)c1ccc(CC(=O)Nc2cc(-c3cccc(Cl)c3)cs2)cc1 |  | > 4.1 |  |  |  |  |  |
| CCS(=O)(=O)c1ccc(CC(=O)Nc2cc(-c3cc(C#N)cnc3OC)cs2)cc1 | > 3300 | 3.5 | 30 | 40 |  |  | permeability ([6]; Caco-2): 2.6 ×10⁻⁶ cm/s; permeability ([7]; Caco-2): 17.1 ×10⁻⁶ cm/s; recovery [9]: 44%; fraction unbound [10]: 0.0009 |
| CCS(=O)(=O)c1ccc(CC(=O)Nc2cc(-c3cccnc3OC)cs2)cc1 |  | 3.6 | 410 | 110 |  | 13 |  |
| CCS(=O)(=O)c1ccc(CC(=O)Nc2cc(-c3cccnc3OCCc3ccccc3)cs2)cc1 |  | ≥ 4 | 29 |  | 70 | 125 |  |
| CCS(=N)(=O)c1ccc(CC(=O)Nc2cc(-c3cc(C#N)ccc3OC)cs2)cc1 (stereo not drawn) |  | 2.8 | 340 | 120 |  |  |  |
| CCS(=O)(=O)c1ccc(CC(=O)Nc2cc(-c3cc(Cl)cc(C#N)c3)cs2)cc1 |  | > 4 | 50 | 90 |  |  |  |
| CCS(=O)(=O)c1ccc(CC(=O)Nc2cc(-c3cncnc3OC)cs2)cc1 |  | 2.8 | 1850 | 700 |  |  |  |
| CCS(=O)(=O)c1ccc(CC(=O)Nc2cc(-c3cccnc3OCc3ccc(C#N)cc3)cs2)cc1 | 100 | ≥ 4 | 10 | 30 | 50 | 286 |  |
| CCS(=O)(=O)c1ccc(CC(=O)Nc2cc(-c3cccnc3Oc3ccccc3)cs2)cc1 |  | ≥ 4 | 46 |  | 50 | 196 |  |
| CCS(=O)(=O)c1ccc(CC(=O)Nc2cc(-c3cccnc3OCC(F)(F)F)cs2)cc1 | 100 |  | 18 | 50 |  | 17 |  |
| CCS(=O)(=O)c1ccc(CC(=O)Nc2cc(-c3cccnc3OCc3ccc(C(=O)OC)cc3)cs2)cc1 | 35 | ≥ 4 | 14 | 21 |  | > 300 | selectivity ratio [12]: 100 |
| CCS(=O)(=O)c1ccc(C(NC(C)=O)C(=O)Nc2cc(-c3cc(C#N)cc(F)c3OC)cs2)cc1 (stereo not drawn) |  | 3.3 |  |  |  |  | Papp A→B [6]: 0.3 ×10⁻⁶ cm/s; Papp B→A [7]: 18 ×10⁻⁶ cm/s; Vd [16]: 0.34 L/kg; bioavailability [17]: 18%; Fa [18]: 19%; solubility (physchem): 200 µM (≈ 103 µg/mL) |

| SMILES | IC50 [1] [nM] | logD [2] | IC50 [3] [nM] | IC50 [4] [nM] | Emax [5] [%] | hepatocyte CLint [11] [µL/min/1e6 cells] | also measured |
| --- | --- | --- | --- | --- | --- | --- | --- |
| CCS(=O)(=O)c1ccc(C(NC(C)=O)C(=O)Nc2cc(-c3cccnc3Oc3ccc(C#N)cc3)cs2)cc1 (stereo not drawn) | 640 | 3.4 | 66 | 55 |  | 10.4 |  |
| CC[S+]([O-])c1ccc(CC(=O)Nc2cc(-c3cc(C#N)cnc3OC)cs2)cc1 (stereo not drawn) |  | 3.4 | 1290 | 440 |  |  |  |
| CCS(=O)(=O)c1ccc(CC(=O)Nc2cc(-c3ccc(C#N)cc3Cl)cs2)cc1 |  | 3.7 | 1160 | 780 |  |  |  |
| CCOc1ncccc1-c1csc(NC(=O)Cc2ccc(S(=O)(=O)CC)cc2)c1 |  | ≥ 4 | 150 | 80 |  | 28 |  |
| CCS(=O)(=O)c1ccc(C(N)C(=O)Nc2cc(-c3cc(C#N)cc(F)c3OC)cs2)cc1 (stereo not drawn) | 1690 | 3.2 | 75 | 452 |  | 11 |  |
| CCS(=O)(=O)N1CCC(CC(=O)Nc2cc(-c3cc(C#N)cnc3OC)cs2)CC1 |  | 3.2 | 3250 | 3250 |  |  |  |
| CNS(=O)(=O)c1ccc(CC(=O)Nc2cc(-c3cc(C#N)cnc3OC)cs2)cc1 | > 3300 | 3.5 | 70 | 40 |  |  | Papp A→B [6]: 0.65 ×10⁻⁶ cm/s; Papp B→A [7]: 26 ×10⁻⁶ cm/s; efflux ratio [8]: 40; recovery [9]: 55%; fraction unbound [10]: < 0.001; solubility (physchem): 0.34 µM (≈ 0.15 µg/mL) |
| CCS(=O)(=O)c1ccc(CC(=O)Nc2cc(-c3cc(C#N)ccc3OC)cs2)cc1 | > 3300 | 3.6 | 20 | 30 |  |  | Papp A→B [6]: 1.6 ×10⁻⁶ cm/s; Papp B→A [7]: 12 ×10⁻⁶ cm/s; efflux ratio [8]: 7.6; recovery [9]: 41%; fraction unbound [10]: 0.001; solubility (physchem): 0.43 µM (≈ 0.189 µg/mL) |
| CCS(=O)(=O)c1ccc(C(NC(C)=O)C(=O)Nc2cc(-c3cccnc3OCc3ccccc3)cs2)cc1 (stereo not drawn) |  | > 4 | 7 |  |  | 24 |  |
| CCS(=O)(=O)c1ccc(CC(=O)Nc2cc(-c3cccnc3Oc3ccc(C#N)cc3)cs2)cc1 | 190 | 3.6 | 88 |  |  | 28 |  |
| CCS(=O)(=O)c1ccc(C(NC(C)=O)C(=O)Nc2cc(-c3cc(C#N)cnc3OC)cs2)cc1 (stereo not drawn) | 990 | 3.3 | 14 | 67 |  | 4 |  |
| CCCOc1ncccc1-c1csc(NC(=O)Cc2ccc(S(=O)(=O)CC)cc2)c1 |  | ≥ 4 | 59 |  | 40 | 80 |  |
| CCS(=O)(=O)c1ccc(CC(=O)Nc2cc(-c3cccnc3OCCCc3ccccc3)cs2)cc1 | > 3300 | ≥ 4 | 17 |  | 30 | 104 |  |
| CCS(=O)(=O)c1ccc(CC(=O)Nc2cc(-c3cc(C#N)ccc3Cl)cs2)cc1 |  | 3.8 | 50 | 60 |  |  |  |
| CCS(=O)(=O)c1ccc(CC(=O)Nc2cc(-c3cccnc3OCc3ccccc3)cs2)cc1 |  | > 4 | 20 |  | 30 | 128 | selectivity ratio [12]: < 10; fraction unbound [10]: 0.0003; solubility (physchem): 0.42 µM (≈ 0.207 µg/mL) |
| CCS(=O)(=O)c1ccc(C(NC(C)=O)C(=O)Nc2cc(-c3cccnc3OCc3ccc(OC(F)(F)F)cc3)cs2)cc1 (stereo not drawn) | 32 | 4.6 | 6 | 75 |  | 9.1 |  |
